# Data taken from PubChem BioAssay (NCI).
#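 All cell lines were grown in 96-well plates and treated with compound for 48 hours. Here, GI50 denotes the concentration required for 50% inhibition of growth. At the TGI there is no net growth.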
# Key:
# Assay in all cases: NCI-60 cell line screen, 48 h
# [1] = test system: SF-295 CNS
# [2] = test system: OVCAR-4 ovarian
# [3] = test system: 786-0 renal
# [4] = test system: SK-MEL-5 melanoma
# [5] = test system: SK-MEL-2 melanoma
# [6] = test system: DU-145 prostate
# [7] = test system: UACC-62 melanoma
# [8] = test system: SNB-19 CNS
# [9] = test system: OVCAR-3 ovarian
# [10] = test system: HCT-15 colon
SMILES,GI50 [1],TGI [1],GI50 [2],TGI [2],GI50 [3],TGI [3],GI50 [4],TGI [4],GI50 [5],TGI [5],GI50 [6],TGI [6],GI50 [7],TGI [7],GI50 [8],TGI [8],GI50 [9],TGI [9],GI50 [10],TGI [10]
CN(Cc1ccccc1)c1ncnc2ccc(Br)cc12,13.5 µM,28.1 µM,12800 nM,36.8 µM,13500 nM,26.3 µM,11800 nM,24.1 µM,35700 nM,> 100 µM,14600 nM,28.7 µM,13100 nM,27.1 µM,16.8 µM,41.9 µM,7450 nM,20.8 µM,14100 nM,32 µM
CC/C=C\C[C@H](O)C/C=C1/C(=O)C=C[C@@H]1C/C=C\CCCC(=O)OCCS(=O)(=O)c1ccccc1,3.74 µM,14.1 µM,4050 nM,16.9 µM,3220 nM,8.61 µM,1990 nM,4.06 µM,4140 nM,17.9 µM,5240 nM,17.8 µM,2480 nM,6.29 µM,5.06 µM,19.4 µM,3190 nM,12 µM,2840 nM,11.4 µM
CC[C@]12C=CCN3CC[C@@]4(c5ccc(OC)cc5N(C)[C@H]4[C@@](O)(C(=O)OC)[C@@H]1OC(=O)CCCC[P+](c1ccccc1)(c1ccccc1)c1ccccc1)[C@@H]32,2.65 µM,9.04 µM,342 nM,10.8 µM,2330 nM,6.74 µM,1690 nM,3.08 µM,478 nM,1.45 µM,875 nM,13.2 µM,374 nM,1.54 µM,0.384 µM,2.92 µM,410 nM,2.23 µM,19400 nM,43.6 µM
CCCCCCCCCCCCCCCCSS(C)(=O)=O,–,> 100 µM,–,54.7 µM,–,27 µM,–,59 µM,–,> 42.4 µM,–,> 100 µM,–,> 57.5 µM,–,> 100 µM,–,31.2 µM,–,39.2 µM
Cc1ccc(C(=O)Nc2ccc(CN3CCN(C)CC3)c(C(F)(F)F)c2)cc1C#Cc1cnc(N)c2ccc(C#N)cc12,8.85 µM,> 50 µM,375 nM,11.8 µM,426 nM,3.79 µM,331 nM,6.1 µM,32.7 nM,9.51 µM,40.3 nM,7.39 µM,21.2 nM,3.64 µM,3.2 µM,19.9 µM,1250 nM,19.2 µM,55.8 nM,8.77 µM
CN(C)C(=O)C(NCCO)c1ccccc1 (stereo not given),–,> 100 µM,–,> 100 µM,–,> 100 µM,–,> 100 µM,–,> 100 µM,–,> 100 µM,–,> 100 µM,–,> 100 µM,–,> 100 µM,–,> 100 µM
COc1ccc2c3c(ccc2c1)NC(C(=O)O)CC3 (stereo not given),–,> 100 µM,–,> 100 µM,–,> 100 µM,–,64.7 µM,–,> 100 µM,–,> 100 µM,–,> 100 µM,–,> 100 µM,–,> 100 µM,–,> 100 µM
Cc1cc(C)nc(NS(=O)(=O)c2ccc(Nc3nc4nc(NCc5ccccc5)nc(-c5ccc(O)cc5)c4c(=O)[nH]3)cc2)n1,16.7 µM,95 µM,32100 nM,> 100 µM,66700 nM,> 100 µM,25700 nM,> 100 µM,20700 nM,> 100 µM,25900 nM,> 100 µM,25200 nM,> 100 µM,27.4 µM,> 100 µM,6180 nM,29.5 µM,32400 nM,> 100 µM
CCCCCCCC(=O)SCC/C=C/[C@@H]1CC(=O)NCc2cccc(n2)C2=N[C@@](C)(CS2)C(=O)N[C@@H](C(C)C)C(=O)O1,0.0623 µM,0.546 µM,150 nM,> 33.3 µM,98.9 nM,> 33.3 µM,27.1 nM,0.115 µM,36.9 nM,0.881 µM,28.7 nM,> 33.3 µM,17.5 nM,0.128 µM,0.191 µM,> 33.3 µM,87.7 nM,1.07 µM,249 nM,> 33.3 µM
COc1ccc(C(=O)OC2C(OC3C(O)COC(O[C@H]4C[C@H]5[C@@H]6CC=C7C[C@@H](O)CC[C@]7(C)[C@H]6CC[C@]5(C)[C@H]4[C@H](C)C(=O)CCC(C)C)C3OC(=O)C(C)C)OCC(O)C2O)cc1 (stereo not given in full),< 0.00275 µM,0.00385 µM,295 nM,5.12 µM,< 2.75 nM,2.99 µM,19 nM,0.36 µM,10.2 nM,0.213 µM,17 nM,4.65 µM,6.68 nM,0.0185 µM,0.0336 µM,3.97 µM,884 nM,5.88 µM,218 nM,3.92 µM
